Results taken from patent US9403843B2, “Cysteine protease inhibitors and uses thereof” (The Trustees of Columbia University in the City of New York, priority 2012, dated 2016).
Read-outs that look alike come from different tables or passages of the source.

Key:
full-length human Cal1 [1] = target: T1, full-length human Cal1 (Homo sapiens (Human), UniProt P07384); experiment: Calpain inhibition FRET assay; type: biochemical
Method: Calpain activity was measured using full-length human Cal1 in the presence of a FRET substrate. IC50 values were approximated by co-incubation of varying concentrations of the appropriate inhibitor (10, 100, 500, 1000 nM) in the presence of the FRET substrate (DABCYL)TPLK-SPPSPR-(EDANS) (SEQ ID NO: 5) and activation buffer. […] A peptide inhibitor, Z-LLY-FMK (SEQ ID NO: 6), was used as a positive control.
The Calbiochem InnoZyme activity kit was used for measuring the inhibition effect inhibitors on human erythrocyte calpain 1 activity. […] 20 μM of the FRET substrate, 10 nM of native Cal1, and 20 μM TCEP (reducing agent) were added to the reaction mixture containing assay buffer (Tris [10 mM], NaCl [100 mM], pH 7.4). Cal1 was activated by the addition of 10 μM calcium. Cleavage of the scissile bond amide bond, K-S, releases the fluorophore (EDANS) from the internal quenching molecule (DABCYL), resulting in an increase in fluorescence measured at 320 nm excitation and 480 nm emission wave lengths for 30 min. Each inhibitor was added to the reaction mixture at varying concentrations (10 nM, 100 nM, 1 μM, and 10 μM) to detect inhibition of Cal1 and reduction in fluorescence was measured by 96 well-plate reader. Approximate IC50 values of each compound were generated using linear regression within Graphpad Prism Software.

[2] = target: Full length porcine calpain (Sus scrofa (Pig), UniProt P35750); experiment: Calpain inhibition kinetics studies (Suc-LLVY-AMC substrate); type: biochemical
Full length porcine calpain, sequence (P35750 whole entry): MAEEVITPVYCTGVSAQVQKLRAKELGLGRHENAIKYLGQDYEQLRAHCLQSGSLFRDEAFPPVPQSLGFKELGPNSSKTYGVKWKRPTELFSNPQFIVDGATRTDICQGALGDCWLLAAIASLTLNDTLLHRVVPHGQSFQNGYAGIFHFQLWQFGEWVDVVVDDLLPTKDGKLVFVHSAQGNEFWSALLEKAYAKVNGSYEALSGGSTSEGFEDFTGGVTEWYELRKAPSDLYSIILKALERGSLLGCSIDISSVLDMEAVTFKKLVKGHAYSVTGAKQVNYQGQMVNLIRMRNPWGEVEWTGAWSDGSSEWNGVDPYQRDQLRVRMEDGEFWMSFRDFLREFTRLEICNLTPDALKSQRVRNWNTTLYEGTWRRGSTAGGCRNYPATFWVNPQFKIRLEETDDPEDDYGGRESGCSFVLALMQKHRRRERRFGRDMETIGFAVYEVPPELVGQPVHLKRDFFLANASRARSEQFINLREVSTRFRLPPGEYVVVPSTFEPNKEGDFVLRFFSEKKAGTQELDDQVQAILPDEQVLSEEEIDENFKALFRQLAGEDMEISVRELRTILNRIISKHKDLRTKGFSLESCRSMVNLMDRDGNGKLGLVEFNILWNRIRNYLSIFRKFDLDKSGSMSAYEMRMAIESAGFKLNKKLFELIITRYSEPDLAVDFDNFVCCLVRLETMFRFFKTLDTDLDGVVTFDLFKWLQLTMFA
Full length porcine calpain, sequence (P04574 whole entry partner): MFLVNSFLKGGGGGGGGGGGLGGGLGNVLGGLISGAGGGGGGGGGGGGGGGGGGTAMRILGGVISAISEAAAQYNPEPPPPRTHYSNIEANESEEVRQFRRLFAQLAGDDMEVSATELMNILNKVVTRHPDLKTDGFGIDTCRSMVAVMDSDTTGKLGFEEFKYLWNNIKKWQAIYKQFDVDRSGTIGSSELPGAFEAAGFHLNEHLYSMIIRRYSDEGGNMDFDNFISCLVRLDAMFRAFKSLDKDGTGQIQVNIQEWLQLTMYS
Excerpt: (§1) Papain is representative of a family of typically lysosomal or secreted cysteine proteases, including the human cathepsins (B, C, F, H, K, L1-2, O, S, W, Z). […] Several methods have been reported in the literature for detailed kinetic analysis of the irreversible inhibition of cysteine proteases, including Cal1. […] (SEQ ID NO: 8). Using this substrate, kinetic parameters were derived using the method of Davies and co-workers, whereby “progress curves” were initially obtained measuring product formation as a function of time and fitted to y=P∞*(1−e^(−k*x)) (FIG. 7) (Cuerrier, D. et al., J Biol Chem 2007, 282, 9600-11; herein incorporated by reference in its entirety). […] Kinetic parameters (ki, KI, ki/KI) were obtained from double reciprocal plots (FIG. 7).
(§2) Full length porcine calpain (156 nM), or papain (236 pM) was added to a solution of 100 mM NaCl, 50 mM HEPES, pH 7.6, 1 mM TCEP, 30 μM Suc-LLVY-AMC (SEQ ID NO: 8) substrate, and inhibitor (0.5 to 50 μM). Calpain reactions also contained CaCl2 (1 mM and 100 mM for porcine and rat respectively). Both substrate and inhibitors were dissolved in acetonitrile/DMSO (1:1) with the exception of E-64, dissolved in water. Organic solvent remained <2% in all reactions, and most often <1%. Reactions were carried out in microtiter 96-well plates, with 150 μL per well, 30° C., and product formation was monitored over time by fluorescence (Ex/Em 346/444 nm, with 420 nm cutoff filter). Kinetic values of kobs were determined via non-linear regression using one-phase association analysis and linear plots of 1/kobs vs. 1/[I] provided kinetic constants ki and KI.

papain = papain (Carica papaya (Papaya), UniProt P00784); experiment: biochemical; type: biochemical
papain, sequence (P00784 134-345): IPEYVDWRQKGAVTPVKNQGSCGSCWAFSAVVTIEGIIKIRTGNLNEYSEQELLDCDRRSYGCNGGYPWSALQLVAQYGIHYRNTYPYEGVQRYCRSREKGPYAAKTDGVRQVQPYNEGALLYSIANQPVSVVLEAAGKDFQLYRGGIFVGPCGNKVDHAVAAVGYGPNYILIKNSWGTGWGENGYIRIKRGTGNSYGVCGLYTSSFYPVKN
Excerpt: as §1, §2

[3] = Acute and chronic toxicity, maximum tolerated dose; type: in vivo; details: mice; for MTD: mouse, in vivo, no malaise or death
Excerpt: For evaluation of acute and chronic toxicity we measured the maximum tolerated dose (MTD) in mice for 30a, 33 and 50.

[4] = Plasma pharmacokinetics after i.p. administration; type: in vivo; details: ICR mice; for time of peak plasma concentration: i.p., 30a 7.57, 33 7.86, 50 7.83 mg/kg; for half-life / bioavailability: mouse, ip, plasma; for bioavailability: after i.p. administration, read-out: absolute bioavailability
Method: Plasma concentrations of 30a, 33 and 50 were determined by LC-MS/MS after i.p. administration to ICR mice. The plasma concentrations at each sampling time are shown on FIG. 10. […] Indeed, following i.p. administration of 30a (7.57 mg/kg), 33 (7.86 mg/kg) and 50 (7.83 mg/kg), the peak plasma concentration occurred at 0.25, 0.5 and 0.125 h after dosing, respectively. […] The respective half-lives were ˜0.6 hrs, ˜1.1 hrs and ˜0.6 hrs.

[5] = tested on: calpain-generated spectrin fragments; experiment: Spectrin proteolytic degradation products in hippocampi, western blot; type: in vivo; details: for prevention of spectrin cleavage by calpains in hippocampi: i.p. treatment for 12 days, doses as for PK
Method: Studies were performed to determine capability of lowering levels of spectrin proteolytic degradation products in hippocampi from adult animals. Using western blot analysis, prevention of calpain-generated spectrin fragments was checked following i.p. treatment for 12 days with 30a, 33 and 50 at the same concentrations used for PK assessment. The array of vehicle samples was obtained by loading samples with 5, 10, 15, and 20 μg total protein/lane. Samples from compound treated animals were loaded at 15 μg/lane.

APP/PS1 mice = experiment: Behavioral rescue assays (contextual fear memory, 2-day RAWM reference memory); type: in vivo; details: for memory impairment: 7 month old APP/PS1 mice, chronic administration
Excerpt: APP/PS1-vehicle: n=15; APP/PS1-67: n=6; APP/PS1-30a: n=10; WT-vehicle: n=15; WT-67=5; WT-30a: n=8, APP/PS1-33: n=11; WT-33: n=8, APP/PS1-50: n=10; WT-50: n=8. P<0.05 in all transgenic groups treated with compound compared to their respective vehicle-treated transgenics.
APP/PS1-vehicle: n=17; APP/PS1-67: n=9; APP/PS1-30a: n=10; WT-vehicle: n=18; WT-67=9; WT-30a: n=9, APP/PS1-33: n=10; WT-33: n=9, APP/PS1-50: n=11; WT-50: n=9.
The ability of compounds to rescue the defects in associative and reference memory in 3 month old APP/PS1 animals was assessed. Capability of ameliorating the defects in contextual fear memory was tested via i.p. administration (FIG. 12). In the 2-day RAWM test, daily injections of the 67, 30a, 33 and 50 from the 2nd month of age were beneficial against the loss of contextual fear memory and reference memory.
Impact of chronic treatment on against memory loss in older APP/PS1 mice (7 months of age) with a more severe plaque load was also investigated. Compounds 67, 33 and 50 were beneficial against memory impairment following chronic administration (FIG. 13).
The ability of a prodrug to rescue the defects in associative and reference memory in 3 month old APP/PS1 animals was assessed. […] Thus, the esterification seems to improve PK but it spoils PD parameters. Compound 89 ameliorates both LTP and memory in 3 month old APP/PS1 mice (FIG. 15). Daily treatment with 89 from the age of 2 months until 3 months ameliorated the defect in LTP (A) contextual fear memory (B) and reference memory (C) in APP/PS1 mice. n=10 for all groups. P<0.05 in transgenics treated with compound compared to their respective vehicle-treated transgenics.

full-length human Cal1 [6] = target: T1, full-length human Cal1; experiment: Calpain inhibition FRET assay; type: biochemical; details: Table 3, 20 min incubation, FRET substrate
[7] = tested on: Aβ-induced LTP impairment; experiment: LTP rescue test; details: assessed at 650 nM
Method: Residual levels of potentiation were averaged during the last 5 min of LTP.

Cal1cat vs CathB = experiment: Competition assay for Cal1 vs CathB using the biotinylated epoxide probe; type: binding, rat
Method: Anti-biotin western blotting of Cal1cat (Lane 6) or CathB (Lane 7) after incubation with 27 show the expected immunoreactivity of the covalently modified proteins. […] Densitometric analysis, using means from triplicate immunoblots, was used to estimate the modification of each protein by 27 in the presence of inhibitors relative to control (Lane 1: ratio=1.0).
Cal1cat was used in place of the full length enzyme to avoid autocatalysis.
Cal1cat and CathB were pre-treated with inhibitors for 10 min, followed by a 20 min incubation with the biotinylated epoxide, 27, as illustrated in FIG. 4. […] A more quantitative estimate of selectivity was achieved by comparison of band intensities.
The appropriate inhibitor (5 μM) was pre-incubated in a mixture containing Cal1cat (2 μM), CathB (2 μM), TCEP (1 mM), and Ca^2+ (30 μM) for 10 min at 37° C. […] (5 μM) was then added and the mixture incubated an additional 20 min. The reaction was quenched with EDTA (10 μM) and samples were ran using 4-16% SDS PAGE gel, subsequently transferred to PVDF membrane and visualized by Pierce ECL (Enhanced chemiluminescent) western blotting substrate, intensity of each blot was calculated using densitometry software. Relative inhibition of each enzyme was calculated with respect to enzyme activity in the absence of inhibitor. Inhibitor preference to Cal1cat with respect to CathB, was calculated by dividing relative Cal1cat inhibition with relative CathB inhibition of that particular inhibitor.

Cal I = experiment: Relative selectivity for Cal I (E64 = 1.0), Table 2; type: biochemical; details: relative to E64 = 1.0
primary neurons = experiment: LD50 in primary neurons; type: cell-based; details: YES = LD50 ≧ 50 μM in primary neurons
[8] = Table 2, approximate IC50, read-out: Cal I IC50
[9] = ki/Ki calculated relative to E-64
[10] = mean ± S.D. of triplicate experiments
[11] = 3 month old APP/PS1 mice, 2-day RAWM, daily from 2 months
[12] = 3 month old APP/PS1 mice, daily i.p. from 2 months
[13] = APP/PS1 mice, daily treatment from 2 until 7 months

T1 sequence (P07384 whole entry): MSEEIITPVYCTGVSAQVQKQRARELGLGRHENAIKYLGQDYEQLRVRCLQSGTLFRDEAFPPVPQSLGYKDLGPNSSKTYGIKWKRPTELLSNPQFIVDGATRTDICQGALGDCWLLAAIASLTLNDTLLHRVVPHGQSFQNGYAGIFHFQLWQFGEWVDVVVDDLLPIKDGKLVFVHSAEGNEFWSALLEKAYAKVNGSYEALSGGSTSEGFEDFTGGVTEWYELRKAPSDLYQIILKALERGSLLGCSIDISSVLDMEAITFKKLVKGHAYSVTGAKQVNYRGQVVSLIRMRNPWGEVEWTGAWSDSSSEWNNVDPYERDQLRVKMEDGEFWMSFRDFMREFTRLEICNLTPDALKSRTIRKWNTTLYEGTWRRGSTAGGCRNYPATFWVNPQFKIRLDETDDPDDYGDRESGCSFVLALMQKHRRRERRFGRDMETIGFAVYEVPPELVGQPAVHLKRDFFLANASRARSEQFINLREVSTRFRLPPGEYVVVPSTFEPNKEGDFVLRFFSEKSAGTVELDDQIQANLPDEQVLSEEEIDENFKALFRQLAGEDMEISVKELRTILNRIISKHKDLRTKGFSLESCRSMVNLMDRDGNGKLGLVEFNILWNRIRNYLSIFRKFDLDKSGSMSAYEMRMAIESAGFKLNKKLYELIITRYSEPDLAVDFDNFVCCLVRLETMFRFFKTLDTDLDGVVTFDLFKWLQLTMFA
T1 sequence (P04632 whole entry partner): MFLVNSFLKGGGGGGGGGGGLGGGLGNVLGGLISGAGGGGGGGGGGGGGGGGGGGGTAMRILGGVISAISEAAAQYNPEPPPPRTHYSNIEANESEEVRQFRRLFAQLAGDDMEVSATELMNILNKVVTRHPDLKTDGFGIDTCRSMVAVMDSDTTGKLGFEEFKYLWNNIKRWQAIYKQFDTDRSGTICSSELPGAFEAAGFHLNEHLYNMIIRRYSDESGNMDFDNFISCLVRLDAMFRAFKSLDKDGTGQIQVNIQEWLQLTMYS

Structure (SMILES) | IC50 (full-length human Cal1 [1]; [8]) [µM] | MTD [3] [mg/kg] | time of peak plasma concentration [4] [h] | half-life [4] [min] | bioavailability [4] [%] | prevention of spectrin cleavage by calpains in hippocampi [5] | reference memory (APP/PS1 mice; [11]) | contextual fear memory (APP/PS1 mice; [12]) | memory impairment (APP/PS1 mice) | contextual fear memory (APP/PS1 mice; [13]) | reference memory (APP/PS1 mice; [13]) | IC50 (full-length human Cal1 [6]) [µM] | potency for LTP rescue compared with E64 [7] | further results
O=C(NCc1cn(-c2ccc(F)cc2)nn1)[C@H](Cc1cscn1)NC(=O)[C@H]1O[C@@H]1C(=O)O [Compound 50, (2S,3S)-3-((S)-1-((1-(4-fluorophenyl)-1H-1,2,3-triazol-4-yl)methylamino)-1-oxo-3-(thiazol-4-yl)propan-2-ylcarbamoyl)oxirane-2-carboxylic acid] | 0.125 | 200 | 0.125 | ~36 | 41.3 | dramatically reduced the amount of fragments | beneficial | beneficial | beneficial | ameliorated | ameliorated | 0.1 | surpassed E64 | Cal1 inhibition (in words) (full-length human Cal1 [1]): potent activity; Relative Selectivity ([2]; Cal1 over papain, ki/Ki relative to E-64 set at 1.0): 9.3; Ki ([2]; apparent equilibrium constant, full length Cal1, read-out: K1 Calpain1): 2.9 µM; ki Calpain1 ([2]; inhibition rate, full length Cal1): 0.10 s⁻¹; relative selectivity for inhibition of Cal1 over papain (in words) ([2]; ki/Ki as measure, compared with E-64): Cal1 selectivity; rel Calpain1 [2, 9]: 1.1; 10^−4 × ki/Ki Calpain1 [2, 10]: 3.31 ± 0.32; Ki (papain; apparent equilibrium constant, read-out: K1 Papain): 19.2 µM; ki Papain (papain; inhibition rate): 12.7 s⁻¹; rel Papain (papain; [9]): 0.12; 10^−5 × ki/Ki Papain (papain; [10]): 6.62 ± 0.74; brain penetration ([5]; inferred from hippocampal spectrin cleavage): capable of effectively penetrating the brain
CC(C)C[C@H](NC(=O)[C@H]1O[C@@H]1C(=O)O)C(=O)NCCCCNC(=O)CCCCC1CCSS1 (stereo partly drawn) [Compound 67] | 0.15 |  |  |  |  |  | beneficial | beneficial | beneficial | ameliorated | not significant |  | surpassed E64 | 
O=C(Nc1nc(-c2ccc(F)cc2)cs1)C(Cc1cnc[nH]1)NC(=O)[C@H]1O[C@@H]1C(=O)O (stereo partly drawn) [Compound 30a, (2S,3S)-3-(1-(4-(4-fluorophenyl)thiazol-2-ylamino)-3-(1H-imidazol-4-yl)-1-oxopropan-2-ylcarbamoyl)oxirane-2-carboxylic acid] | 0.1 | 100 | 0.25 | ~36 | 80.4 | less efficient at preventing the spectrin cleavage | beneficial | beneficial |  | ameliorated | ameliorated |  |  | IC50 (full-length human Cal1 [1]; Cal1, values stated in text, read-out: IC50): ~0.1 µM; blocking of active site modification by probe 27 (western blot signal) (Cal1cat vs CathB; 10 min pre-treatment, then 20 min with 27): little change in the CathB signal; selectivity for Cal1cat (ratio of Cal1cat versus CathB band intensities) (Cal1cat vs CathB; ratio for probe 27 alone set as 1.0, inhibitor 5 μM): highest selectivity; chronic toxicity, histopathology ([3]; chronic treatment at MTD): nephrotoxicity was noticed
Cn1cnc(C[C@H](NC(=O)[C@H]2O[C@@H]2C(=O)O)C(=O)Nc2nc(-c3ccc(F)cc3)cs2)c1 [Compound 36, (2S,3S)-3-((S)-1-(4-(4-fluorophenyl)thiazol-2-ylamino)-3-(1-methyl-1H-imidazol-4-yl)-1-oxopropan-2-ylcarbamoyl)oxirane-2-carboxylic acid] |  |  |  |  |  |  |  |  |  |  |  | 0.225 | did not surpass | 
CC(=O)NCCCCNC(=O)[C@H](CC(C)C)NC(=O)C1OC1c1ccccc1 (stereo partly drawn) [Compound 61] | ~1 |  |  |  |  |  |  |  |  |  |  |  |  | Relative selectivity for Cal I E64 = 1.0 (Cal I): 0.3; LD50 ≧ 50 μM primary neurons (primary neurons): YES
